Reference: ChEMBL document CHEMBL5126517, “Structure-Activity Relationship in the Leucettine Family of Kinase Inhibitors” (J Med Chem, 2022)

Legend:
[1] = target: Dual specificity protein kinase CLK3 (Mus musculus, UniProt O35492); assay: Inhibition of GST-fused mouse recombinant CLK3 expressed in Escherichia coli using GRSRSRSRSRSR peptide as substrate incubated for 30 mins in presence of ATP by scintillation counting method
Cannabinoid receptor 1 = Cannabinoid receptor 1 (Homo sapiens, UniProt P21554); assay: Antagonist activity at CP-55940-activated CB1 receptor (unknown origin) at 10 uM by beta-arrestin assay relative to control; type: functional; set-up: scale not given: the % may be the effect or the level left
Cannabinoid receptor 1, sequence (P21554 whole entry): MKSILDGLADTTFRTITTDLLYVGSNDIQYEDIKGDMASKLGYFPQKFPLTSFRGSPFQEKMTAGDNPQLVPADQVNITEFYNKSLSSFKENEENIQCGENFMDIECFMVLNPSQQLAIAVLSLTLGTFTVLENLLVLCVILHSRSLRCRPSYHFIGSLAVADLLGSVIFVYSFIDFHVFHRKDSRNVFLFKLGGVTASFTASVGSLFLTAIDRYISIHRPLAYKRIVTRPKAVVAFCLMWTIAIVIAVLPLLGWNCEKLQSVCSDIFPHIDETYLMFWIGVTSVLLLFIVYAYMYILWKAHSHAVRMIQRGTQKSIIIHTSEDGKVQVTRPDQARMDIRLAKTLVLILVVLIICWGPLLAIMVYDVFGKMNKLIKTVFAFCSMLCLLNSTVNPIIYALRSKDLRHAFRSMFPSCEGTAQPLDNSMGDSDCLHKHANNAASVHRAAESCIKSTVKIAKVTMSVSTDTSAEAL

[2] = Neurotoxicity against mouse HT-22 cells assessed as cell survival at 20 uM treated for 24 hrs by MTS assay; type: toxicity, cell-based; conditions: ht-22, 24 h
[3] = target: Dual specificity protein kinase CLK1 (Mus musculus, UniProt P22518); assay: Inhibition of GST-fused mouse recombinant CLK1 expressed in Escherichia coli using GRSRSRSRSRSR peptide as substrate incubated for 30 mins in presence of ATP by scintillation counting method
Dual specificity protein kinase CLK1, sequence (P22518 whole entry, the tested form may be a part): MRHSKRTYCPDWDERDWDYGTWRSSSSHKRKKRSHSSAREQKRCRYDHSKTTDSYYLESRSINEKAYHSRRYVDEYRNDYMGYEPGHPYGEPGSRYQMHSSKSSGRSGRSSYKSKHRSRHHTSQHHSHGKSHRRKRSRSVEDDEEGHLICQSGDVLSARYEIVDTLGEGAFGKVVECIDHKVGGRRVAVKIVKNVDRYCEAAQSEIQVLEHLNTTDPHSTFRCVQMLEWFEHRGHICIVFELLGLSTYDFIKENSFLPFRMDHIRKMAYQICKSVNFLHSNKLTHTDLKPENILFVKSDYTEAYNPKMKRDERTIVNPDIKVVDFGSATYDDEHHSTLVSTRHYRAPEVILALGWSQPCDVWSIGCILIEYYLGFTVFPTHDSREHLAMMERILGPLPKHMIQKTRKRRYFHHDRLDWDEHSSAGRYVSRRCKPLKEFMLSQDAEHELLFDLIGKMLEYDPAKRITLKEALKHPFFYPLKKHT

[4] = target: Dual specificity protein kinase CLK4 (Mus musculus, UniProt O35493); assay: Inhibition of GST-fused mouse recombinant CLK4 expressed in Escherichia coli using GRSRSRSRSRSR peptide as substrate incubated for 30 mins in presence of ATP by scintillation counting method
Dual specificity protein kinase CLK4, sequence (O35493 whole entry, the tested form may be a part): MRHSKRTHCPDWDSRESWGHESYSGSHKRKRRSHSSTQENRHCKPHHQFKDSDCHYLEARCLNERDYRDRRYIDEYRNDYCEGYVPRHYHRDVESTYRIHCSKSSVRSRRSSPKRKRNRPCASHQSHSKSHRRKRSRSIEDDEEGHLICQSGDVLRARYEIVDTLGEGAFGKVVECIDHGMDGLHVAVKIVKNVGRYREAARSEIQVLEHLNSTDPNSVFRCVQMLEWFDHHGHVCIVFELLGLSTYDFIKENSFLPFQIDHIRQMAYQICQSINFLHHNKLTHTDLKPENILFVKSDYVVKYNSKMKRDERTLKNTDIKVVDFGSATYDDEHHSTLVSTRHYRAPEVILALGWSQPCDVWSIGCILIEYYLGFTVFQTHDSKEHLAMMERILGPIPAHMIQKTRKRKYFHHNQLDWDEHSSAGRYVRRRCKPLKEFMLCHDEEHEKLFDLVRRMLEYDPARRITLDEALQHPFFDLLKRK

[5] = target: Dual specificity tyrosine-phosphorylation-regulated kinase 1A (Homo sapiens, UniProt Q13627); assay: Inhibition of GST-fused human recombinant DYRK1A expressed in Escherichia coli using GRSRSRSRSRSR peptide as substrate incubated for 30 mins in presence of ATP by scintillation counting method
[6] = target: Glycogen synthase kinase-3 (Sus scrofa, UniProt B2LUN4+I6LNT8); assay: Inhibition of porcine brain GSK-3alpha/beta using YRRAAVPPSPSLSRHSSPHQpSEDEEE as substrate incubated for 30 mins in presence of ATP by scintillation counting method; type: tissue-based
[7] = target: T1, Dual specificity tyrosine-phosphorylation-regulated kinase 3 (Homo sapiens, UniProt O43781); assay: Inhibition of GST-fused human recombinant DYRK3 expressed in Escherichia coli using GRSRSRSRSRSR peptide as substrate incubated for 30 mins in presence of ATP by scintillation counting method
T1 sequence (O43781 whole entry): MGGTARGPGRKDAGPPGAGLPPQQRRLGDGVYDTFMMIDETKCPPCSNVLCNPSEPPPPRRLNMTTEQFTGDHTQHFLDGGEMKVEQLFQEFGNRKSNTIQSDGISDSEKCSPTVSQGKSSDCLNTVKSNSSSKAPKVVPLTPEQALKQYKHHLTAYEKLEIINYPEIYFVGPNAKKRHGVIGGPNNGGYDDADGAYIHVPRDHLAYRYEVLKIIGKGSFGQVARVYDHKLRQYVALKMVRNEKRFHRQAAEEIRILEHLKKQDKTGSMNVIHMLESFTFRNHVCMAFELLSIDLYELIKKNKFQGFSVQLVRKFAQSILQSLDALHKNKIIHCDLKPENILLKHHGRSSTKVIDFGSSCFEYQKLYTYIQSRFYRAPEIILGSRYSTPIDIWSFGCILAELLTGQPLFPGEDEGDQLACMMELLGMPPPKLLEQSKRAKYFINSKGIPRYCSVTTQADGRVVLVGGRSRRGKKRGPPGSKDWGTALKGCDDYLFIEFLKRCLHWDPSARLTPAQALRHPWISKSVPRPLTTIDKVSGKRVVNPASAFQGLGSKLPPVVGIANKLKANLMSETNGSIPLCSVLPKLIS

[8] = target: Dual specificity protein kinase CLK2 (Mus musculus, UniProt O35491); assay: Inhibition of mouse recombinant GST-fused CLK2 expressed in Escherichia coli using GRSRSRSRSRSR peptide as substrate incubated for 30 mins in presence of ATP by scintillation counting method
Dual specificity protein kinase CLK2, sequence (O35491 whole entry, the tested form may be a part): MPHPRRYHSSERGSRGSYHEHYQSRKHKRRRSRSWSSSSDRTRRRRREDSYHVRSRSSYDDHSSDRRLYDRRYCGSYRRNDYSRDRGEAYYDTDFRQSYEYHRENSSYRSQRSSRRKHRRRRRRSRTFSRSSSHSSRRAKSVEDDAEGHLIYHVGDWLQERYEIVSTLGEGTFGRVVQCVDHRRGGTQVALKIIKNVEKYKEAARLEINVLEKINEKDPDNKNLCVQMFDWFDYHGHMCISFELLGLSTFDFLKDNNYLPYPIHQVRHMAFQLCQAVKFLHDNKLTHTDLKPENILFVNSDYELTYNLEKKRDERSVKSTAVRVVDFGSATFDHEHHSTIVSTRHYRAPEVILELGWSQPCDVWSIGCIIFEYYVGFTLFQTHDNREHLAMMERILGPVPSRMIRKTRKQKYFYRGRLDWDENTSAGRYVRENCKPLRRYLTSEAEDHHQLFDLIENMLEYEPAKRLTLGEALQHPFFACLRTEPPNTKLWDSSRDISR

[9] = target: Dual specificity tyrosine-phosphorylation-regulated kinase 1B (Homo sapiens, UniProt Q9Y463)
Dual specificity tyrosine-phosphorylation-regulated kinase 1B, sequence (Q9Y463 whole entry, the tested form may be a part): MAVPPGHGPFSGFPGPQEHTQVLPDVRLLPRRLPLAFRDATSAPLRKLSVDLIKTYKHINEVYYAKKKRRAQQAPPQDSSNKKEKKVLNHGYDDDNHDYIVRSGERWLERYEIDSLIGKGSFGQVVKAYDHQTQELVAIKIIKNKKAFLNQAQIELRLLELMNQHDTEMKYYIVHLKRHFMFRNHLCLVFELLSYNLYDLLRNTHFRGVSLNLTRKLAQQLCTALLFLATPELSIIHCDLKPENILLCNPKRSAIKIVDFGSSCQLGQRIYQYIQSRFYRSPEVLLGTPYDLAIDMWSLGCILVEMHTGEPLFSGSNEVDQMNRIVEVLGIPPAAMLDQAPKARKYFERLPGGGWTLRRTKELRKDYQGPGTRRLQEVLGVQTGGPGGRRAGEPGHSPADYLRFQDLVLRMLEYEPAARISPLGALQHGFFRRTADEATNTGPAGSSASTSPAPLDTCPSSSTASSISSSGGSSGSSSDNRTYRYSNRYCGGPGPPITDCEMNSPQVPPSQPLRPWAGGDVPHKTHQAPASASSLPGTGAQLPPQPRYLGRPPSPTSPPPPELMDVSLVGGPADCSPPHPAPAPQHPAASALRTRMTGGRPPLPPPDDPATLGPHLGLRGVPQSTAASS

[10] = target: T2, Dual specificity tyrosine-phosphorylation-regulated kinase 2 (Homo sapiens, UniProt Q92630); assay: Inhibition of GST-fused human recombinant DYRK2 expressed in Escherichia coli using GRSRSRSRSRSR peptide as substrate incubated for 30 mins in presence of ATP by scintillation counting method
T2 sequence (Q92630 whole entry): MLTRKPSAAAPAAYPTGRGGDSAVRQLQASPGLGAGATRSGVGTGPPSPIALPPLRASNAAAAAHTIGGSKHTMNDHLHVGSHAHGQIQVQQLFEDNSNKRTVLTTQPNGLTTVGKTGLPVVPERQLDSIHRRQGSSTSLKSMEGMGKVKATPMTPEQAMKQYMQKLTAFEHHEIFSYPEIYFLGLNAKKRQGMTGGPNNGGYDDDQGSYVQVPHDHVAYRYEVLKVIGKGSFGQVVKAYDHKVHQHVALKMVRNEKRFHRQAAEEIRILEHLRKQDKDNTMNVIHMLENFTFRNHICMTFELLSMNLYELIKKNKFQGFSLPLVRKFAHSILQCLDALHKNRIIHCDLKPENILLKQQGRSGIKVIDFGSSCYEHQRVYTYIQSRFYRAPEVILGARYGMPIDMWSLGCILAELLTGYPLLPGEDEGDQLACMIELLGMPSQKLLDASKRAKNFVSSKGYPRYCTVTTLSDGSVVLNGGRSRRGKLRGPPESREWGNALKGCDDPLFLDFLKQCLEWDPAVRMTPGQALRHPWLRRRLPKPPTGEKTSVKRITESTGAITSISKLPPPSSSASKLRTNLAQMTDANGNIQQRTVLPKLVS

HT-22 = assay: Neuroprotective activity against glutamate-induced cell death in mouse HT-22 cells treated for 24 hrs by MTS assay; type: functional, cell-based; conditions: HT-22, 24 h
Casein kinase 2 = Casein kinase 2 (Homo sapiens, UniProt P67870+P68400+P19784+Q8NEV1); assay: Inhibition of human recombinant CK2 using RRRDDDSDDD peptide as substrate incubated for 30 mins in presence of ATP by scintillation counting method; type: protein assay
U2OS = assay: Induction of PI3K/mTor-dependent autophagy in human U2OS cells assessed as number of LC3 foci per cell at 10 uM measured after 4 hrs; type: cell-based; conditions: filed as activator
[11] = target: Serine/threonine-protein kinase pim-1 (Homo sapiens, UniProt P11309); assay: Inhibition of human recombinant Pim1 expressed in Escherichia coli using histone H1 as substrate incubated for 30 mins in presence of ATP by scintillation counting method
Serine/threonine-protein kinase pim-1, sequence (P11309 whole entry): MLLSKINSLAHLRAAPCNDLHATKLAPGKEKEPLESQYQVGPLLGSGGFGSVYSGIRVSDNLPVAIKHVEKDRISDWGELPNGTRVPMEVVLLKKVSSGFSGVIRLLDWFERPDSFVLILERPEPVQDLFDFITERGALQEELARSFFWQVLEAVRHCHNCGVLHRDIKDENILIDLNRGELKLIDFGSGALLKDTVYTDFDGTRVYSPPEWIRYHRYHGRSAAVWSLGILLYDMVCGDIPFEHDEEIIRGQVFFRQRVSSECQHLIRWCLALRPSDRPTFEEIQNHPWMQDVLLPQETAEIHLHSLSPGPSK

Dual specificity protein kinase CLK3, sequence (O35492 whole entry, the tested form may be a part): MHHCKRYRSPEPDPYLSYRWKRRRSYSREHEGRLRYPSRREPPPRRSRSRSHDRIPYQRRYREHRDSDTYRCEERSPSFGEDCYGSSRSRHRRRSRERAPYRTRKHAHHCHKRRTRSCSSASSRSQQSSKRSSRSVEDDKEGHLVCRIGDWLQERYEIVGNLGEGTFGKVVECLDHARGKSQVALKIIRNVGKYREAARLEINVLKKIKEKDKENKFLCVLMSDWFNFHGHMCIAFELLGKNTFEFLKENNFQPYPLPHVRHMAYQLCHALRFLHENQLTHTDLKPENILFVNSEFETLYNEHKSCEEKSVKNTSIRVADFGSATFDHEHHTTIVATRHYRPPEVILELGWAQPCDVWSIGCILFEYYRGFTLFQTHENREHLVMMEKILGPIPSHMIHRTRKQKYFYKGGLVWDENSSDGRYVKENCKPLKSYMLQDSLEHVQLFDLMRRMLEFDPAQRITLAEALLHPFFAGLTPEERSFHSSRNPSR

| Compound | IC50 [1] [nM] | Activity (Cannabinoid receptor 1; filed as antagonist) [%] | Activity [2] | IC50 [3] [nM] | IC50 [4] [nM] | IC50 [5] [nM] | IC50 [6] [nM] | IC50 [7] [nM] | IC50 [8] [nM] | IC50 [9] [nM] | IC50 [10] [nM] | EC50 (HT-22) [nM] | IC50 (Casein kinase 2) [nM] | Activity (U2OS) | IC50 [11] [nM] | Activity (Cannabinoid receptor 1) [%] |
| --- | --- | --- | --- | --- | --- | --- | --- | --- | --- | --- | --- | --- | --- | --- | --- | --- |
| O=C1NC(Nc2ccc(F)cc2)=N/C1=C\c1ccc2c(c1)OCO2 | > 10000 | 76.4 | Non-Toxic | 62 | 50 | 28 | 8800 | 930 | 260 | 100 | 35 | 3600 | 8800 | 4.9 | 9300 |  |
| O=C1NC(Nc2ccccc2)=N/C1=C\c1ccc(F)cc1 | > 10000 | 78 | Non-Toxic | 3200 | 2800 | 9500 |  |  | > 10000 | > 10000 |  | 2850 | 3200 | 20.2 | > 10000 |  |
| COc1cc(/C=C2\N=C(Nc3ccc(N4CCNCC4)cc3)NC2=O)ccc1O | > 10000 |  | Non-Toxic | 1200 | 1200 | 1300 | 6500 | 1500 | 3500 | 2200 | 2100 | 7000 |  | 6.3 | > 10000 | -26.8 |
| CCCCCOc1ccc(NC2=N/C(=C\c3ccc4c(c3)OCO4)C(=O)N2)cc1 | > 10000 |  | Non-Toxic | 850 | 620 | 710 | > 10000 | 7000 | 3100 | 2300 | 510 | 1140 | 1300 | 7 | ≥ 10000 | 37.4 |
| O=C1NC(Nc2ccc(N3CCNCC3)cc2)=N/C1=C\c1ccc2c(c1)OCO2 | 9000 |  | Non-Toxic | 420 | 520 | 350 | 2400 | 1200 | 1800 | 950 | 410 | 910 | 2300 | 7.3 | 6100 | -47.5 |
| O=C1NC(Nc2ccccc2)=N/C1=C\c1ccc2c(c1)OCCO2 | 2400 | 96.3 | Non-Toxic | 130 | 140 | 76 | 2000 | 420 | 880 | 250 | 92 | 10000 | 970 | 6.6 | 1000 |  |
| CCCCCCc1ccc(NC2=N/C(=C\c3ccc4c(c3)OCO4)C(=O)N2)cc1 |  | 75 | Non-Toxic | > 10000 | 4100 | > 10000 |  |  |  | > 10000 | 9500 | 1190 |  | 6.5 |  |  |
| O=C1NC(Nc2ccccc2)=N/C1=C\c1ccc2c(c1)CCO2 | 1200 | 96.4 | Non-Toxic | 22 | 19 | 32 | > 10000 | 240 | 120 | 88 | 41 | 7000 | 1100 | 10.2 | 3200 |  |
| [2H]C1([2H])Oc2ccc(/C=C3\N=C(Nc4ccccc4)NC3=O)cc2O1 | 500 |  | Non-Toxic | 40 |  |  | 750 |  | 170 |  |  | 4900 | 1600 |  |  |  |
| O=C1NC(Nc2ccc(Oc3ccccc3)cc2)=N/C1=C\c1ccc2c(c1)OCO2 |  | 73.5 | Non-Toxic | 1800 | 760 | 920 | > 10000 |  | > 10000 | 4000 | 1100 | 2400 |  | 4.6 |  |  |
| O=C1NC(Nc2ccccc2)=N/C1=C\c1ccccc1 |  | 44.6 | Non-Toxic |  |  |  |  |  |  |  |  | 7200 |  | 7.7 |  |  |
| Cc1ccc(NC2=N/C(=C\c3ccc4c(c3)OCO4)C(=O)N2)c(C)c1 | > 10000 | 65.6 | Non-Toxic | 240 | 140 | 72 | 1400 | 950 | 1100 | 160 | 75 | 8000 | 2400 | 5.6 | 2500 |  |
| O=C1NC(Nc2ccccc2)=N/C1=C\c1ccc(O)c(O)c1 | 2300 |  | Non-Toxic | 210 | 130 | 150 | 1200 | 1200 | 1500 | 320 | 270 | 3300 | 1500 | 10.1 | 840 | -22.3 |
| O=C1NC(Nc2cccc(F)c2)=N/C1=C\c1ccc2c(c1)OCO2 | 560 | 83.4 | Non-Toxic | 52 | 30 | 19 | 560 | 350 | 130 | 35 | 23 | 5000 | 800 | 7.5 | 1200 |  |
| COc1ccc(/C=C2\N=C(Nc3ccccc3)NC2=O)cc1O |  | 46.8 | Non-Toxic | 4300 | 4000 | 2000 |  | 2400 | ≥ 10000 | 2800 | 2100 | 5570 | > 10000 | 6.5 | 1900 |  |
